{
  "source": "patent US20090093544A1",
  "about": "“INSECTICIDAL COMPOSITIONS HAVING IMPROVED EFFECT” (Bayer CropScience AG, priority 2005, published 2009)",
  "test_system": "Spodoptera frugiperda",
  "test": "Spodoptera frugiperda test (SPODFR), spray treatment of maize plants",
  "type": "in vivo",
  "conditions": "168 h, read-out: Mortality/% 7 d",
  "description": "Spodoptera frugiperda—Test (SPODFR)\nFor the preparation of an expedient active ingredient preparation, 1 part by weight of active ingredient is mixed with the stated amounts of solvent and emulsifier, and the concentrate is diluted with emulsifier-containing water to the desired concentration. If it is necessary to add ammonium salts or ammonium salts and penetration promoter, the corresponding amount is pipetted into each of the ready preparation solution after the dilution.\nMaize plants (Zea mais) are treated with the active ingredient preparation in the desired concentration by spraying and are populated with caterpillars of the fall armyworm (Spodoptera frugiperda) as long as the leaves are still moist.\nAfter the desired time, the kill in % is determined. 100% means that all caterpillars were killed; 0% means that no caterpillars were killed.",
  "data": [
    {"smiles": "Cc1cc(C(F)(C(F)(F)F)C(F)(F)F)ccc1NC(=O)c1cccc(Cl)c1C(=O)N[C@@H](C)CS(C)(=O)=O", "note": "[(Ib)]", "values": [
      {"measurement": "mortality at 0.192 g/ha", "value": 70, "unit": "%"}
    ]}
  ]
}
